Test results published in patent US20120270237A9, “METHODS FOR THE IDENTIFICATION OF KINASE INTERACTING MOLECULES AND FOR THE PURIFICATION OF KINASE PROTEINS” (Cellzone AG, priority 2009, published 2012).

Assays:
Assay in all cases: Kinobeads competition binding, HL60 cell lysate
Set-up in all cases: endogenous in cells
Settings in all cases: 10 μM free compound
JAK1 = JAK1 (Homo sapiens, UniProt P23458)
In short: (§1)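 Two aliquots of HL60 cell lysate were used, one spiked with 10 μM compound and one with 0.5% DMSO, before pull-down on immobilized-compound beads (50 mg protein, 2 h, 4 °C). Bound proteins were digested and labeled with different iTRAQ reagents. Combined peptides were analysed by LC-MS/MS.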

MST1 = molecular target: T1, MST1 (Homo sapiens, UniProt Q13043)
T1 sequence (Q13043 1-487): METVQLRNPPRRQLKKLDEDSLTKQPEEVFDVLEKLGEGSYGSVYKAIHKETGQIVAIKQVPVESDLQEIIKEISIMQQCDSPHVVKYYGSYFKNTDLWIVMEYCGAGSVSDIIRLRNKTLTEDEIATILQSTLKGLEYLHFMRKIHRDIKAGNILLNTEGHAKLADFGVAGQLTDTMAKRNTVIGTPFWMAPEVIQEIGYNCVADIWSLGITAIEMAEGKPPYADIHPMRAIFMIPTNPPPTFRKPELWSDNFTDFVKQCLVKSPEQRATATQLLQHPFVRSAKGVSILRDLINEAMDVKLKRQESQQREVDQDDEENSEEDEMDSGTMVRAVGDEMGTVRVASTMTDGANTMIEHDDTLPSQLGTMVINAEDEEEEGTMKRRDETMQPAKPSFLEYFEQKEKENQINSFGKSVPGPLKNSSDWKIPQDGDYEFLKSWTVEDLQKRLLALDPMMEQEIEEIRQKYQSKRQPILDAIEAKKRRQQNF
In short: as §1

CK2a1 = CK2a1 (Homo sapiens, UniProt P68400)
Sequence of CK2a1 (P68400 whole entry): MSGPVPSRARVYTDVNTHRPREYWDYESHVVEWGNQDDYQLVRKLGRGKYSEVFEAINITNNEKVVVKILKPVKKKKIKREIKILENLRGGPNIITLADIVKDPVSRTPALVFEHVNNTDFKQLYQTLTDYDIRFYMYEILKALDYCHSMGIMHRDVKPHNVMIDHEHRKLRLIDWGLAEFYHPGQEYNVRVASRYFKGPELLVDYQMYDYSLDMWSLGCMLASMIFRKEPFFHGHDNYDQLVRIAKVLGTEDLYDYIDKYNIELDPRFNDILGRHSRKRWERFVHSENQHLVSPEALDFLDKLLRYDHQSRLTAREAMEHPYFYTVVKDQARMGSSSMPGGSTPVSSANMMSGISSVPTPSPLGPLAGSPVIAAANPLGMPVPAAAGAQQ
In short: as §1

NEK9 = molecular target: T2, NEK9 (Homo sapiens, UniProt Q8TD19)
T2 sequence (Q8TD19 1-979): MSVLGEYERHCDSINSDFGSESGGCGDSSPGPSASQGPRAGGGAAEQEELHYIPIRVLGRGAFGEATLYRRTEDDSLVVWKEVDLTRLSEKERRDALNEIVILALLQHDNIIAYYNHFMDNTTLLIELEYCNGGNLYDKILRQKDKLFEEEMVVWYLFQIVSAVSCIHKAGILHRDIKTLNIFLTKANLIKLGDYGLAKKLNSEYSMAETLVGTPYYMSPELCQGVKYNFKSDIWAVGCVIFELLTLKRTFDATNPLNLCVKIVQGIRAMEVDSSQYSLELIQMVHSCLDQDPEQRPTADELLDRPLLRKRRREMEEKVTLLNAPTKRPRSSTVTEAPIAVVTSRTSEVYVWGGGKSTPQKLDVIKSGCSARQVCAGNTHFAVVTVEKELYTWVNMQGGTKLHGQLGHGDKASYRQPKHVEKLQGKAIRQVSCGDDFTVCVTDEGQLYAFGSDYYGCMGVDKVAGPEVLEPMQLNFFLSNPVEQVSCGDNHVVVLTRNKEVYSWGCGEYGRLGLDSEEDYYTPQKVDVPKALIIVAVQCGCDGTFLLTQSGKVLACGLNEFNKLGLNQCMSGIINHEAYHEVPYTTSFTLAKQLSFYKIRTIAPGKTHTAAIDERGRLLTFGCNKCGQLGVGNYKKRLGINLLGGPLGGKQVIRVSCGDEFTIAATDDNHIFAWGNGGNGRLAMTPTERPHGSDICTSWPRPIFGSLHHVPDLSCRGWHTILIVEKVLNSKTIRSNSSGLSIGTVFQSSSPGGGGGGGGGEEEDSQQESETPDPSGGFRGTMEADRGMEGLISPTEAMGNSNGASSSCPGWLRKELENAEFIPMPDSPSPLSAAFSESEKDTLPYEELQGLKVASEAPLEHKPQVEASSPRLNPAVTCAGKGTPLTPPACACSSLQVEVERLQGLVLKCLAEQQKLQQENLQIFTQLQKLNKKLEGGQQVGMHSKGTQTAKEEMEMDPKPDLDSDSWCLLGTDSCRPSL
In short: as §1

JAK2 = JAK2 (Homo sapiens, UniProt O60674)
Sequence of JAK2 (O60674 whole entry): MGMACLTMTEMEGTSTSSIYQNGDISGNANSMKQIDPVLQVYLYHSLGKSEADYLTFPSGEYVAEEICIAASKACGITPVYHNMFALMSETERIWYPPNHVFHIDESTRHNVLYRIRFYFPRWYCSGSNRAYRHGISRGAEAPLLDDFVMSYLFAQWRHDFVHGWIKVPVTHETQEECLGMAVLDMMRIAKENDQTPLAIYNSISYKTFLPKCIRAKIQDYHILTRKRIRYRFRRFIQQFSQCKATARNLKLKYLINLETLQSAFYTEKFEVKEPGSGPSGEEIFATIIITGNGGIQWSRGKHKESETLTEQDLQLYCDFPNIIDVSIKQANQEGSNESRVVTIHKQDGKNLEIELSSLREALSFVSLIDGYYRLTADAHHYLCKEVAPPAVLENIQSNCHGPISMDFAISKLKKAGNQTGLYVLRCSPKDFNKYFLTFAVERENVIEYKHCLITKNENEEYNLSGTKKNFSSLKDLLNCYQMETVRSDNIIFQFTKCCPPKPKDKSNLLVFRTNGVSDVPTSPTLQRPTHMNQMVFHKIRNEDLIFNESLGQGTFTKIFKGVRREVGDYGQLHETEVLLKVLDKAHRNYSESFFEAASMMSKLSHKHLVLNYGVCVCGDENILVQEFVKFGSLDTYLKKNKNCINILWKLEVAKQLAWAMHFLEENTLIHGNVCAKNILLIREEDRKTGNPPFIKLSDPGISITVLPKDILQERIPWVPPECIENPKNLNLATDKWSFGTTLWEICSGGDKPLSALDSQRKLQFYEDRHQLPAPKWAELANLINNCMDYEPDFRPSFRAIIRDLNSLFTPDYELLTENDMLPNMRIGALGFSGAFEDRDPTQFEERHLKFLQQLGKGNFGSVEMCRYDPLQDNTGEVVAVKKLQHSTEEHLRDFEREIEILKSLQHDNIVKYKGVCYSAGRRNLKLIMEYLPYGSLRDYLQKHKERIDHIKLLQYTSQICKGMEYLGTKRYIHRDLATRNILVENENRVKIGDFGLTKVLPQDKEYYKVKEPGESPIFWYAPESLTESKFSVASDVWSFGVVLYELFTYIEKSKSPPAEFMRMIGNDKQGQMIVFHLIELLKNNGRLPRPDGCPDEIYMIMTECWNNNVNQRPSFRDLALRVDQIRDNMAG
In short: as §1

Sequence of JAK1 (P23458 whole entry): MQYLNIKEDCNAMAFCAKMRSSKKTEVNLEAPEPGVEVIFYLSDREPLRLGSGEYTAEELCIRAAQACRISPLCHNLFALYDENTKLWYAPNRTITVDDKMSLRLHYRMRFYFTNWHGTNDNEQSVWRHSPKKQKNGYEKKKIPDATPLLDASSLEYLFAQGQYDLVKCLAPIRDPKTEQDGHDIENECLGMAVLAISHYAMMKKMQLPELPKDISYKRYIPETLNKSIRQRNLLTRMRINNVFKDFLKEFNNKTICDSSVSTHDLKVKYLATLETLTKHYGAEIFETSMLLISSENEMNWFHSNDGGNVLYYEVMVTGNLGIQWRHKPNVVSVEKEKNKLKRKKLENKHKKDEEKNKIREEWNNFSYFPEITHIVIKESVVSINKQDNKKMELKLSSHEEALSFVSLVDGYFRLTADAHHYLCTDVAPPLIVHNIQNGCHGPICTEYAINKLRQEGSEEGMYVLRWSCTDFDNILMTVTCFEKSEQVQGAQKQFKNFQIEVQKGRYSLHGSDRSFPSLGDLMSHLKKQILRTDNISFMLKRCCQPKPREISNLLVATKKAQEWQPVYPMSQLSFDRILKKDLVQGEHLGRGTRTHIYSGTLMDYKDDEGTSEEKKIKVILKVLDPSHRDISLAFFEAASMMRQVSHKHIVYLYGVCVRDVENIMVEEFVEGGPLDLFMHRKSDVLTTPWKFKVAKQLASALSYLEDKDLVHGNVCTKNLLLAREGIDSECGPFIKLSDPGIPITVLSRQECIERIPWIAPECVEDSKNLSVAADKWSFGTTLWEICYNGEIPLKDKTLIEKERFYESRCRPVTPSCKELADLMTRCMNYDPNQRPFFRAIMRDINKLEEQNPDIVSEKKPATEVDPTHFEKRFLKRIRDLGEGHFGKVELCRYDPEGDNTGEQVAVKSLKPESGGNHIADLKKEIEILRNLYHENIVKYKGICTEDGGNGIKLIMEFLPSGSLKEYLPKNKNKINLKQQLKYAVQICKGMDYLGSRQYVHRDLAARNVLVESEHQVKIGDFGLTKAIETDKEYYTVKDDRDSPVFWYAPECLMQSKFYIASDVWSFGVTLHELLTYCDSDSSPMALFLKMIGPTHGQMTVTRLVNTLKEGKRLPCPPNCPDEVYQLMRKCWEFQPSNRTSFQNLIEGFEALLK

SMILES: CS(=O)(=O)Nc1ccccc1Nc1nc(Nc2cccc(OCCN)c2)ncc1Cl [CZC31326, N-(2-(2-(3-(2-aminoethoxy)phenylamino)-5-chloropyrimidin-4-ylamino)phenyl)methanesulfonamide]
- Competition % (JAK1): 97.8%
- Competition % (MST1): 97.7%
- inhibition at 10 µM (CK2a1): 97.9%
- inhibition at 10 µM (NEK9): 93%
- Competition % (JAK2): 96.8%
